Where two headings read alike, the source gives them in different places.
How the values were obtained:
[1] = test system: RF strain of HIV-1 in CEM-SS cells; experiment: HIV-1 cell protection assay (XTT dye reduction); assay type: cell-based
Procedure: HIV-1 Cell Protection Assay
The antiviral activities of potential modulator compounds (test compounds) were determined in HIV-1 cell protection assays using the RF strain of HIV-1, CEM-SS cells, and the XTT dye reduction method (Weislow, O. S. et al., J. Natl. Cancer Inst. 81: 577-586 (1989)). Subject cells were infected with HIV-1 RF virus at an moi of 0.025 to 0.819 or mock infected with medium only and added at 2×10^4 cells per well into 96 well plates containing half-log dilutions of test compounds. Six days later, 50 μl of XTT solution (1 mg/ml XTT tetrazolium and […] phenazine methosulfate) were added to the wells and the plates were reincubated for four hours. Viability, as determined by the amount of XTT formazan produced, was quantified spectrophotometrically by absorbance at 450 nm. Data from CPE assays were expressed as the percent of formazan produced in compound-treated cells compared to formazan produced in wells of uninfected, compound-free cells. […] The therapeutic index was calculated by dividing the cytotoxicity (CC50) by the antiviral activity (EC50).

[2] = target: T1, Full-length wild type HIV-1 integrase (SF1) (Human immunodeficiency virus type 1 group M subtype B, UniProt P04585); experiment: Integrase strand-transfer scintillation proximity assay; assay type: biochemical; settings: strand transfer, 50 min at 37° C., 246 nM integrase, 50 nM host DNA; read-out: IC50
T1 construct: made in house; host or cells: E. coli BL21 (DE3)
Description: Integrase Strand-Transfer Scintillation Proximity Assay Oligonucleotides
Oligonucleotide #1-5′-(biotin)[…]-3′ (SEQ ID NO: 1) and oligonucleotide #2-5′-[…]-3′ (SEQ ID NO: 2), were synthesized by TriLink BioTechnologies, Inc. (San Diego, Calif.). The annealed product represents preprocessed viral ds-DNA derived from the LTR U5 sequence of the viral genome. A ds-DNA control to test for non-specific interactions was made using a 3′ di-deoxy derivative of oligonucleotide #1 annealed to oligonucleotide #2. The CA overhang at the 5′ end of the non-biotinylated strand of the ds-DNA was created artificially by using a complimentary DNA oligonucleotide shortened by 2 base pairs. This configuration eliminates the requisite 3′ processing step of the integrase enzyme prior to the strand-transfer mechanism. Host ds-DNA was prepared as an unlabeled and [^3H]-thymidine labeled product from annealed oligonucleotide #3-5-[…]-3′ (SEQ ID NO: 3), and oligonucleotide #4-5′-[…]-3′ (SEQ ID NO: 4), both synthesized by TriLink BioTechnologies, Inc. (San Diego, Calif.). The annealed product had overhanging 3′ ends of poly(dA). Host DNA was custom radiolabeled by PerkinElmer Life Sciences Inc. (Boston, Mass.) using an enzymatic method with a 12/1 ratio of [methyl-3H]dTTP/cold ds-DNA to yield 5′-blunt end ds-DNA with a specific activity of >900 Ci/mmol. The radiolabeled product was purified using a NENSORB cartridge and stored in stabilized aqueous solution (PerkinElmer). The final radiolabeled product had six [^3H]-thymidine nucleotides at both 5′ ends of the host ds-DNA. Reagents: Streptavidin-coated polyvinyltoluene (PVT) SPA beads were purchased from Amersham Biosciences (Piscataway, N.J.). Cesium chloride was purchased from Shelton Scientific, Inc. (Shelton, Conn.). White, polystyrene, flat-bottom, non-binding surface, 96-well plates were purchased from Corning. All other buffer components were purchased from Sigma (St. Louis, Mo.) unless otherwise indicated.
Enzyme Construction: Full-length wild type HIV-1 integrase (SF1) sequence (amino acids 1-288) was constructed in a pET24a vector (Novagen, Madison, Wis.). The construct was confirmed through DNA sequencing. Enzyme Purification: Full length wild-type HIV Integrase was expressed in E. coli BL21 (DE3) cells and induced with 1 mM isopropyl-1 thio-β-D-galactopyranoside (IPTG) when cells reached an optical density between 0.8-1.0 at 600 nm. Cells were lysed by microfluidation in 50 mM HEPES pH 7.0, 75 mM NaCl, 5 mM DTT, 1 mM 4-(2-Aminoethyl)benzenesulfonylfluoride HCl (AEBSF). Lysate was then centrifuged 20 minutes at 11 k rpm in GSA rotor in Sorvall RC-5B at 4° C. Supernant was discarded and pellet resuspended in 50 mM HEPES pH 7.0, 750 mM NaCl, 5 mM DTT, 1 mM AEBSF and homogenized in a 40 mL Dounce homogenizer for 20 minutes on ice. Homogenate was then centrifuged 20 minutes at 11 k rpm in SS34 rotor in Sorvall RC-5B at 4° C. Supernant was discarded and pellet resuspended in 50 mM HEPES pH 7.0, 750 mM NaCl, 25 mM CHAPS, 5 mM DTT, 1 mM AEBSF. Preparation was then centrifuged 20 minutes at 11 k rpm in SS34 rotor in Sorvall RC-5B at 4° C. Supernant was then diluted 1:1 with 50 mM HEPES pH 7.0, 25 mM CHAPS, 1 mM DTT, 1 mM AEBSF and loaded onto a Q-Sepharose column pre-equilibrated with 50 mM HEPES, pH 7.0, 375 mM NaCl, 25 mM CHAPS, 1 mM DTT, 1 mM AEBSF. The flow through peak was collected and NaCl diluted to 0.1 M with 50 mM HEPES pH 7.0, 25 mM CHAPS, 1 mM DTT, 0.5 mM AEBSF and loaded onto a SP-Sepharose column pre-equilibrated with 50 mM HEPES pH 7.0, 100 mM NaCl, 25 mM CHAPS, 1 mM DTT, 0.5 mM AEBSF. After washing the column with the equilibration buffer, a 100 to 400 mM NaCl gradient was run. The eluted integrase was concentrated and run on a S-300 gel diffusion column using 50 mM HEPES pH 7.0, 500 mM NaCl, 25 mM CHAPS, 1 mM DTT, 0.5 mM AEBSF. The peak from this column was concentrated to 0.76 mg/mL and stored at −70° C. and later used for strand transfer assays. […]

[3] = Human immunodeficiency virus 1, CEM-SS, 144 h, HIV-1 RF, CEM-SS cells, XTT dye reduction, six days, read-out: EC50

O=C(NO)c1cc2c(CN3CC[C@@H]4C(=O)NC[C@@H]4C3)cn(Cc3ccc(F)cc3F)c2cn1 (racemic) [Example 16, rac 1-(2,4-difluorobenzyl)-N-hydroxy-3-{[(3aR*,7aS*)-1-oxooctahydro-5H-pyrrolo[3,4-c]pyridin-5-yl]methyl}-1H-pyrrolo[2,3-c]pyridine-5-carboxamide] gave an EC50 [1, 3] of 12 nM and an IC50 [2] of 108 nM.
CONC(=O)c1cc2c(CN3CC[C@@H]4C(=O)NC[C@@H]4C3)cn(Cc3ccc(F)cc3F)c2cn1 (racemic) [Example 17, rac 1-(2,4-Difluorobenzyl)-N-methoxy-3-{[(3aR*,7aS*)-1-oxooctahydro-5H-pyrrolo[3,4-c]pyridin-5-yl]methyl}-1H-pyrrolo[2,3-c]pyridine-5-carboxamide] showed an EC50 [1, 3] of 25 nM and an IC50 [2] of 300 nM.
Molecule CN(O)C(=O)c1cc2c(CN3CC[C@@H]4C(=O)NC[C@@H]4C3)cn(Cc3ccc(F)cc3F)c2cn1 (racemic) [Example 18, rac 1-(2,4-difluorobenzyl)-N-hydroxy-N-methyl-3-{[(3aR*,7aS*)-1-oxooctahydro-5H-pyrrolo[3,4-c]pyridin-5-yl]methyl}-1H-pyrrolo[2,3-c]pyridine-5-carboxamide] has an EC50 [1, 3] of 49 nM and an IC50 [2] of 470 nM.
With O=C(NO)c1cc2c(CNC3CC3c3ccccc3)cn(Cc3ccc(F)cc3F)c2cn1 (racemic) [Example 75, rac-1-(2,4-Difluorobenzyl)-N-hydroxy-3-({[(1S,2R)-2-phenylcyclopropyl]amino}methyl)-1H-pyrrolo[2,3-c]pyridine-5-carboxamide] the EC50 [1, 3] was 14 nM and the IC50 [2] was 382 nM.
CN(O)C(=O)c1cc2c(CN3CC[C@@H]4CNC(=O)[C@@H]4C3)cn(Cc3ccc(F)cc3F)c2cn1 (relative stereo) [Example 112] showed an EC50 [1, 3] of 597 nM and an IC50 [2] of 62 nM.
C[C@@H](NCc1cn(Cc2ccc(F)cc2F)c2cnc(C(=O)NO)cc12)[C@@H](O)c1ccccc1 (stereo in doubt) [Example 86, 1-(2,4-Difluorobenzyl)-N-hydroxy-3-{[(2-hydroxy-1-methyl-2-phenylethyl)amino]methyl}-1H-pyrrolo[2,3-c]pyridine-5-carboxamide] was tested, and the EC50 [1, 3] was 11 nM and the IC50 [2] was 314 nM.
CCOC(=O)N1C2CC[C@@H]1CC(NCc1cn(Cc3ccc(F)cc3F)c3cnc(C(=O)NO)cc13)C2 (stereo in doubt) [Example 97, Ethyl (1R,5S)-3-[({1-(2,4-difluorobenzyl)-5-[(hydroxyamino)carbonyl]-1H-pyrrolo[2,3-c]pyridin-3-yl}methyl)amino]-8-azabicyclo[3.2.1]octane-8-carboxylate] gave an EC50 ([1]; Human immunodeficiency virus 1, CEM-SS, 144 h) of 20 nM and an IC50 [2] of 311 nM.
Work on O=C(NO)c1cc2ccn(Cc3ccc(F)cc3F)c2cn1 [Example 1, 1-(2,4-Difluorobenzyl)-N-hydroxy-1H-pyrrolo[2,3-c]pyridine-5-carboxamide] yielded an EC50 [1, 3] of 7.95 nM and an IC50 [2] of 84 nM.
Molecule O=C(NO)c1cc2c(CN3CCOCC3)cn(Cc3ccc(F)cc3F)c2cn1 [Example 2, 1-(2,4-difluorobenzyl)-N-hydroxy-3-(morpholin-4-ylmethyl)-1H-pyrrolo[2,3-c]pyridine-5-carboxamide] has an EC50 [1, 3] of 68 nM and an IC50 [2] of 52.3 nM.
O=C(NO)c1cc2c(CNCCO)cn(Cc3ccc(F)cc3F)c2cn1 [Example 3] was tested, and the EC50 ([1]; HIV-1 RF, CEM-SS cells, XTT dye reduction, six days, read-out: EC50) was 160 nM and the IC50 [2] was 195 nM.
Work on CN(C)CCCNCc1cn(Cc2ccc(F)cc2F)c2cnc(C(=O)NO)cc12 [Example 4] yielded an EC50 [1, 3] of 85 nM and an IC50 [2] of 343 nM.
Molecule CN1CCN(Cc2cn(Cc3ccc(F)cc3F)c3cnc(C(=O)NO)cc23)CC1 [Example 5, 1-(2,4-Difluorobenzyl)-N-hydroxy-3-[(4-methylpiperazin-1-yl)methyl]-1H pyrrolo[2,3-c]pyridine-5-carboxamide] has an EC50 [1, 3] of 13 nM and an IC50 [2] of 153 nM.
Molecule O=C(NO)c1cc2c(CN3CCCCC3)cn(Cc3ccc(F)cc3F)c2cn1 [Example 6, 1-(2,4-difluorobenzyl)-N-hydroxy-3-(piperidin-1-ylmethyl)-1H-pyrrolo[2,3-c]pyridine-5-carboxamide] has an EC50 [1, 3] of 5.2 nM and an IC50 [2] of 108 nM.
Work on CN(O)C(=O)c1cc2c(CN3CCOCC3)cn(Cc3ccc(F)cc3F)c2cn1 [Example 7, 1-(2,4-Difluorobenzyl)-A-hydroxy-N-methyl-3-(morpholin-4-ylmethyl)-1H-pyrrolo[2,3-c]pyridine-5-carboxamide] yielded an EC50 [1, 3] of 21 nM and an IC50 [2] of 140 nM.
CN(Cc1cccnc1)Cc1cn(Cc2ccc(F)cc2F)c2cnc(C(=O)NO)cc12 [Example 8, 1-(2,4-Difluorobenzyl)-N-hydroxy-3-{[methyl(pyridin-3-ylmethyl)amino]methyl}-1H-pyrrolo[2,3-c]pyridine-5-carboxamide] gave an EC50 [1, 3] of 52 nM and an IC50 [2] of 45 nM.
O=C(NO)c1cc2c(CN3CCS(=O)(=O)CC3)cn(Cc3ccc(F)cc3F)c2cn1 [Example 9, 1-(2,4-Difluorobenzyl)-3-[(1,1-dioxidothiomorpholin-4-yl)methyl]-N-hydroxy-1H-pyrrolo[2,3-c]pyridine-5-carboxamide] was tested, and the EC50 [1, 3] was 7.4 nM and the IC50 [2] was 20 nM.
NC(=O)CNCc1cn(Cc2ccc(F)cc2F)c2cnc(C(=O)NO)cc12 [Example 10, 3-{[(2-Amino-2-oxoethyl)amino]methyl}-1-(2,4-difluorobenzyl)-N-hydroxy-1H-pyrrolo[2,3-c]pyridine-5-carboxamide] showed an EC50 [1, 3] of 18 nM and an IC50 [2] of 84 nM.
Molecule O=C(NO)c1cc2c(CNc3cccnc3)cn(Cc3ccc(F)cc3F)c2cn1 [Example 11, 1-(2,4-Difluorobenzyl)-N-hydroxy-3-[(pyridin-3-ylamino)methyl]-1 pyrrolo[2,3-c]pyridine-5-carboxamide] has an EC50 [1, 3] of 15 nM and an IC50 [2] of 37 nM.
O=C(NO)c1cc2c(CNC3CCS(=O)(=O)C3)cn(Cc3ccc(F)cc3F)c2cn1 (stereo not drawn) [Example 12, 1-(2,4-Difluorobenzyl)-3-{[(1,1-dioxidotetrahydrothien-3-yl)amino]methyl}-N-hydroxy-1H-pyrrolo[2,3-c]pyridine-5-carboxamide] gave an EC50 [1, 3] of 19 nM and an IC50 [2] of 36 nM.
Molecule O=C(NO)c1cc2cnn(Cc3ccc(F)cc3)c2cn1 [Example 35, 1-(4-Fluorobenzyl)-N-hydroxy-1H-pyrazolo[3,4-c]pyridine-5-carboxamide] has an IC50 [2] of 446 nM.

— patent US7468375B2 (Pfizer Inc., priority 2004, dated 2008)
